Experiments:
[1] = tested on: members of the MAPK and GPCR pathways; test: ELISA of venous blood for MAPK and GPCR pathway members in NNK-treated hamsters; assay type: in vivo, Syrian Golden Hamsters; settings: blood one week after NNK 2.5 mg/100 g s.c. three times weekly for 10 weeks
Procedure: Syrian Golden Hamsters are injected subcutaneously with the tobacco-specific carcinogenic nitrosamine 4-(methylnitrosamino)-1-(3-pyridyl)-1-butanone (NNK) at a dosage of 2.5 mg/100 g bodyweight three times weekly for 10 weeks. […] Control hamsters are untreated. One week after the final NNK injection, approximately 250 microliters of venous blood is collected from the hamsters.
Antibodies that bind to phosphorylated or unphosphorylated members of the MAPK and GPCR pathways, including Raf, Ras, MEK, ERK, adenylate cyclase, cAMP, PKA, CREB, and PKC are purchased from commercial sources, including EMD Biosciences (San Diego, Calif.) (Raf, ERK), BD Biosciences Pharmingen (San Diego, Calif.) (Raf), Cell Signaling Technology (Beverly, Mass.) (Ras), Abgent (San Diego, Calif.) ([…]), GenWay Biotech Inc. (San Diego, Calif.) (adenylate cyclase), Abcam, Inc. (Cambridge, Mass.) (cAMP, PKA, PKC, Raf), and Upstate (Charlottesville, Va.) (CREB).
Paired antibodies for each of the above member of the MAPK and GPCR pathways are utilized as coating antibody and detection antibody in formulating an ELISA (Enzyme-Linked Immunosorbent Assay) for each of the members. […]
Briefly, a first antibody that binds to a member of the MAPK or GPCR pathway is bound to the wells on a microtiter plate. […] Then a stop solution is added to the wells and the color intensity of each well is measured using an ELISA plate reader.

[2] = tested on: human pulmonary adenocarcinoma cells; settings: in vitro; by increasing the release of arachidonic acid; cited from earlier work
[3] = tested on: pulmonary adenocarcinomas; settings: animal model; cited from earlier work
[4] = tested on: lung tumors; settings: 2.5 mg/100 g s.c. three times weekly for 20 weeks; within 52 weeks after start of injections; cited from earlier work

| SMILES | ELISA color intensity versus control hamsters [1] | proliferation of human pulmonary adenocarcinoma cells [2] | induction of pulmonary adenocarcinomas [3] | lung tumors developed [4] |
| --- | --- | --- | --- | --- |
| CN(CCCC(=O)c1cccnc1)N=O [NNK, 4-(methylnitrosamino)-1-(3-pyridyl)-1-butanone] | significantly higher | stimulate the proliferation | reproducibly induced pulmonary adenocarcinomas | about 10 lung tumors/hamster |
| CC(C)NCC(O)c1ccc(O)c(O)c1 (centres unmarked) [isoproterenol] |  | stimulate the proliferation |  |  |

Reference: patent US20060233705A1, “Diagnosis by determination of hyperactivity or increased expression of members of cell signaling pathways” (priority 2005, published 2006)
